{
  "source": "paper PMC5218480",
  "about": "(PLoS ONE, 2017)",
  "tested_on": "MV-4-11 cells",
  "assay": "Gene expression microarray analysis (Affymetrix PrimeView) and GSEA",
  "type": "cell-based, human",
  "design": "RFU PODN (11730768_x_at) / Fold change /veh PODN (11730768_x_at) / RFU LINC00158 (11744669_a_at) / Fold change /veh LINC00158 (11744669_a_at) / RFU DUSP10 (11751237_a_at) / Fold change /veh DUSP10 (11751237_a_at) / RFU ID3 (11757404_x_at) / Fold change /veh ID3 (11757404_x_at) / RFU PLEKHG5 (11737974_s_at) / Fold change /veh PLEKHG5 (11737974_s_at) / RFU LRRC4B (11730491_at) / Fold change /veh LRRC4B (11730491_at) / RFU GIMAP4 (11747438_a_at) / Fold change /veh GIMAP4 (11747438_a_at) / RFU KRT8 (11758183_x_at) / Fold change /veh KRT8 (11758183_x_at) / RFU CNN1 (11734310_a_at) / Fold change /veh CNN1 (11734310_a_at) / RFU VPS37D (11726825_at) / Fold change /veh VPS37D (11726825_at) / RFU C10orf10 (11716522_x_at) / Fold change /veh C10orf10 (11716522_x_at) / RFU KIR2DL2 /// KIR2DL4 /// KIR2DL5A /// KIR2DL5B /// KIR2DS1 /// KIR2DS2 /// KIR2DS3 /// KIR2DS4 /// KIR3DL3 /// KIR3DL3 /// KIR3DS1 (11738374_at) / Fold change /veh KIR2DL2 /// KIR2DL4 /// KIR2DL5A /// KIR2DL5B /// KIR2DS1 /// KIR2DS2 /// KIR2DS3 /// KIR2DS4 /// KIR3DL3 /// KIR3DL3 /// KIR3DS1 (11738374_at) / RFU C1QL1 (11718748_at) / Fold change /veh C1QL1 (11718748_at) / RFU TMPRSS4 (11747572_a_at) / Fold change /veh TMPRSS4 (11747572_a_at) / RFU HAMP (11756126_x_at) / Fold change /veh HAMP (11756126_x_at) / RFU RNFT2 (11725882_a_at) / Fold change /veh RNFT2 (11725882_a_at) / RFU NR4A2 (11747474_a_at) / Fold change /veh NR4A2 (11747474_a_at) / RFU ABCC12 (11746883_a_at) / Fold change /veh ABCC12 (11746883_a_at) / RFU TMEM136 (11760407_x_at) / Fold change /veh TMEM136 (11760407_x_at) / RFU CLDN22 /// WWC2 (11732394_at) / Fold change /veh CLDN22 /// WWC2 (11732394_at) / RFU HLA-DPB1 (11760878_x_at) / Fold change /veh HLA-DPB1 (11760878_x_at) / RFU SPINT1 (11716480_a_at) / Fold change /veh SPINT1 (11716480_a_at) / RFU GAP43 (11754022_s_at) / Fold change /veh GAP43 (11754022_s_at) / RFU A4GNT (11735810_at) / Fold change /veh A4GNT (11735810_at) / RFU PRB3 (11715151_x_at) / Fold change /veh PRB3 (11715151_x_at) / RFU TUBB4B (11761932_at) / Fold change /veh TUBB4B (11761932_at) / RFU CAPN14 (11732068_a_at) / Fold change /veh CAPN14 (11732068_a_at) / RFU TMCC2 (11721928_a_at) / Fold change /veh TMCC2 (11721928_a_at) / RFU IRGQ (11745062_a_at) / Fold change /veh IRGQ (11745062_a_at) / RFU FAM174B (11720279_a_at) / Fold change /veh FAM174B (11720279_a_at) / RFU TMPRSS4 (11748680_a_at) / Fold change /veh TMPRSS4 (11748680_a_at) / RFU FAM212B (11763350_a_at) / Fold change /veh FAM212B (11763350_a_at) / RFU PLEKHG5 (11743358_a_at) / Fold change /veh PLEKHG5 (11743358_a_at) / RFU ZSCAN30 (11745921_a_at) / Fold change /veh ZSCAN30 (11745921_a_at) / RFU CMKLR1 (11741424_a_at) / Fold change /veh CMKLR1 (11741424_a_at) / RFU LOC101060620 /// MAPK8IP1 (11723275_at) / Fold change /veh LOC101060620 /// MAPK8IP1 (11723275_at) / RFU SPTSSB (11747773_x_at) / Fold change /veh SPTSSB (11747773_x_at) / RFU PRSS12 (11739890_at) / Fold change /veh PRSS12 (11739890_at) / RFU BIN1 (11741810_x_at) / Fold change /veh BIN1 (11741810_x_at) / RFU WNT11 (11732464_a_at) / Fold change /veh WNT11 (11732464_a_at) / RFU C10orf10 (11716521_a_at) / Fold change /veh C10orf10 (11716521_a_at) / RFU C5orf56 (11738089_at) / Fold change /veh C5orf56 (11738089_at) / RFU CYB561 (11721691_x_at) / Fold change /veh CYB561 (11721691_x_at) / RFU ANKRD19P (11752326_a_at) / Fold change /veh ANKRD19P (11752326_a_at) / RFU OR2T12 /// OR2T33 /// OR2T8 (11738714_s_at) / Fold change /veh OR2T12 /// OR2T33 /// OR2T8 (11738714_s_at) / RFU VCAN (11748164_a_at) / Fold change /veh VCAN (11748164_a_at) / RFU JSRP1 (11732532_at) / Fold change /veh JSRP1 (11732532_at) / RFU KRTAP10-11 (11738290_x_at) / Fold change /veh KRTAP10-11 (11738290_x_at) / RFU MYO3A (11730013_a_at) / Fold change /veh MYO3A (11730013_a_at) / RFU EBF3 (11725865_a_at) / Fold change /veh EBF3 (11725865_a_at) / RFU CAMK2N1 (11719241_x_at) / Fold change /veh CAMK2N1 (11719241_x_at) / RFU C5orf56 (11738088_a_at) / Fold change /veh C5orf56 (11738088_a_at) / RFU OLFML3 (11715873_a_at) / Fold change /veh OLFML3 (11715873_a_at) / RFU LOC100653217 /// NTM (11731650_a_at) / Fold change /veh LOC100653217 /// NTM (11731650_a_at) / RFU MAPK11 (11762145_a_at) / Fold change /veh MAPK11 (11762145_a_at) / RFU FIZ1 (11724087_x_at) / Fold change /veh FIZ1 (11724087_x_at) / RFU OASL (11726364_x_at) / Fold change /veh OASL (11726364_x_at) / RFU SOX15 (11748057_x_at) / Fold change /veh SOX15 (11748057_x_at) / RFU CD79A (11719716_a_at) / Fold change /veh CD79A (11719716_a_at) / RFU HIST1H1D (11736915_at) / Fold change /veh HIST1H1D (11736915_at) / RFU CASKIN2 (11723855_a_at) / Fold change /veh CASKIN2 (11723855_a_at) / RFU LOC730098 (11760151_x_at) / Fold change /veh LOC730098 (11760151_x_at) / RFU OR4N2 (11742367_at) / Fold change /veh OR4N2 (11742367_at) / RFU PRRT2 (11749266_a_at) / Fold change /veh PRRT2 (11749266_a_at) / RFU SNX32 (11753110_a_at) / Fold change /veh SNX32 (11753110_a_at) / RFU CDHR5 (11726645_a_at) / Fold change /veh CDHR5 (11726645_a_at) / RFU RCAN1 (11760418_a_at) / Fold change /veh RCAN1 (11760418_a_at) / RFU FAM167A (11723789_a_at) / Fold change /veh FAM167A (11723789_a_at) / RFU FAM26E (11764081_at) / Fold change /veh FAM26E (11764081_at) / RFU ISYNA1 (11749810_s_at) / Fold change /veh ISYNA1 (11749810_s_at) / RFU ACY1 (11761880_at) / Fold change /veh ACY1 (11761880_at) / RFU 11764098_at / Fold change /veh 11764098_at / RFU SAMD14 (11745864_x_at) / Fold change /veh SAMD14 (11745864_x_at) / RFU NPB (11741838_a_at) / Fold change /veh NPB (11741838_a_at) / RFU TMPRSS6 (11731388_a_at) / Fold change /veh TMPRSS6 (11731388_a_at) / RFU KRTAP10-2 (11738614_at) / Fold change /veh KRTAP10-2 (11738614_at) / RFU ARHGAP8 /// PRR5-ARHGAP8 (11727945_x_at) / Fold change /veh ARHGAP8 /// PRR5-ARHGAP8 (11727945_x_at) / RFU KRTAP5-7 /// NADSYN1 (11734609_at) / Fold change /veh KRTAP5-7 /// NADSYN1 (11734609_at) / RFU RASL12 (11751679_a_at) / Fold change /veh RASL12 (11751679_a_at) / RFU CDKN2B (11736163_a_at) / Fold change /veh CDKN2B (11736163_a_at) / RFU PRF1 (11729649_at) / Fold change /veh PRF1 (11729649_at) / RFU, ZNF638 /// ZNF638-IT1 / Fold change vs veh, ZNF638 /// ZNF638-IT1 / RFU, PANK3 / Fold change vs veh, PANK3 / RFU, SH3YL1 / Fold change vs veh, SH3YL1 / RFU, ZEB2 / Fold change vs veh, ZEB2 / RFU, NRIP1 / Fold change vs veh, NRIP1 / RFU, PTTG1IP / Fold change vs veh, PTTG1IP / RFU, CAPN2 / Fold change vs veh, CAPN2 / RFU, MED14 / Fold change vs veh, MED14 / RFU, SNORA58 / Fold change vs veh, SNORA58 / RFU, C1orf63 / Fold change vs veh, C1orf63 / RFU, LRRFIP1 / Fold change vs veh, LRRFIP1 / RFU, NDUFAF7 / Fold change vs veh, NDUFAF7 / RFU, SLC12A2 / Fold change vs veh, SLC12A2 / RFU, IBTK / Fold change vs veh, IBTK / RFU, ESF1 / Fold change vs veh, ESF1 / Fold change vs veh, TMEM50B / RFU, TAOK1 / Fold change vs veh, TAOK1 / RFU, ACBD3 / Fold change vs veh, ACBD3 / RFU, TMA16 / Fold change vs veh, TMA16 / RFU, RWDD3 / Fold change vs veh, RWDD3 / RFU, BCAT1 / Fold change vs veh, BCAT1 / RFU, EDEM3 / Fold change vs veh, EDEM3 / RFU, TMEM33 / Fold change vs veh, TMEM33 / RFU, WDR75 / Fold change vs veh, WDR75 / RFU, AHCTF1 / Fold change vs veh, AHCTF1 / RFU, TFRC / Fold change vs veh, TFRC / RFU, ZDHHC17 / Fold change vs veh, ZDHHC17 / RFU, NOM1 / Fold change vs veh, NOM1 / RFU, ARL8B / Fold change vs veh, ARL8B / RFU, ZBTB11 / Fold change vs veh, ZBTB11 / RFU, TAMM41 / Fold change vs veh, TAMM41 / RFU, KIAA1704 /// LOC100996395 / Fold change vs veh, KIAA1704 /// LOC100996395 / RFU, ING1 / Fold change vs veh, ING1 / RFU, TRMT61B / Fold change vs veh, TRMT61B / RFU, FUBP3 / Fold change vs veh, FUBP3 / RFU, TP53 / Fold change vs veh, TP53 / RFU, TNKS2 / Fold change vs veh, TNKS2 / RFU, ZFP14 / Fold change vs veh, ZFP14 / RFU, ACTR2 / Fold change vs veh, ACTR2 / RFU, PPP3R1 / Fold change vs veh, PPP3R1 / RFU, PIK3R1 / Fold change vs veh, PIK3R1 / RFU, HNRNPA1 / Fold change vs veh, HNRNPA1 / RFU, RNF170 / Fold change vs veh, RNF170 / RFU, ZNF28 / Fold change vs veh, ZNF28 / RFU, RNGTT / Fold change vs veh, RNGTT / RFU, OGT / Fold change vs veh, OGT / RFU, BRD1 / Fold change vs veh, BRD1 / RFU, MARS / Fold change vs veh, MARS / RFU, ZNF655 / Fold change vs veh, ZNF655 / RFU, FAHD1 / Fold change vs veh, FAHD1 / RFU, BDP1 / Fold change vs veh, BDP1 / RFU, LRRCC1 / Fold change vs veh, LRRCC1 / RFU, ARID1A / Fold change vs veh, ARID1A / RFU, ZNF146 / Fold change vs veh, ZNF146 / RFU, ZNF330 / Fold change vs veh, ZNF330 / RFU, GPN3 / Fold change vs veh, GPN3 / RFU, C9orf123 / Fold change vs veh, C9orf123 / RFU, N4BP2L2 / Fold change vs veh, N4BP2L2 / RFU, ARFIP1 / Fold change vs veh, ARFIP1 / RFU, FAM179B / Fold change vs veh, FAM179B / RFU, BCL10 / Fold change vs veh, BCL10 / RFU, UHRF1BP1L / Fold change vs veh, UHRF1BP1L / RFU, BET1 / Fold change vs veh, BET1 / RFU, CNOT2 / Fold change vs veh, CNOT2 / RFU, ZNF268 / Fold change vs veh, ZNF268 / Fold change vs veh, ZNF507 / RFU, DGCR2 / Fold change vs veh, DGCR2 / RFU, WDSUB1 / Fold change vs veh, WDSUB1 / Fold change vs veh, HSP90B1 /// MIR3652 / RFU, ADSS / Fold change vs veh, ADSS / RFU, GK / Fold change vs veh, GK / RFU, ZNF148 / Fold change vs veh, ZNF148 / RFU, TAF9 / Fold change vs veh, TAF9 / RFU, SLC1A5 / Fold change vs veh, SLC1A5 / RFU, SLMO2 / Fold change vs veh, SLMO2 / RFU, ABCC4 / Fold change vs veh, ABCC4 / RFU, LOC101060439 /// RAP1B / Fold change vs veh, LOC101060439 /// RAP1B / RFU, RFX7 / Fold change vs veh, RFX7 / RFU, GTPBP10 / Fold change vs veh, GTPBP10 / RFU, CNEP1R1 / Fold change vs veh, CNEP1R1 / RFU, BIVM-ERCC5 /// ERCC5 / Fold change vs veh, BIVM-ERCC5 /// ERCC5 / RFU, ILF3 / Fold change vs veh, ILF3 / RFU 11762660_at / Fold change /veh 11762660_at / RFU VCAN (11757783_s_at) / Fold change /veh VCAN (11757783_s_at) / RFU DDX43 (11728927_at) / Fold change /veh DDX43 (11728927_at) / RFU KRT8 (11758188_x_at) / Fold change /veh KRT8 (11758188_x_at) / RFU NKD1 (11759106_at) / Fold change /veh NKD1 (11759106_at) / RFU SRD5A1 (11742802_a_at) / Fold change /veh SRD5A1 (11742802_a_at) / RFU TPSAB1 /// TPSB2 (11721975_s_at) / Fold change /veh TPSAB1 /// TPSB2 (11721975_s_at) / RFU GSTM3 (11746129_a_at) / Fold change /veh GSTM3 (11746129_a_at) / RFU IL23R (11737362_x_at) / Fold change /veh IL23R (11737362_x_at) / RFU TMEM51 (11727254_a_at) / Fold change /veh TMEM51 (11727254_a_at) / RFU PIWIL2 (11732686_x_at) / Fold change /veh PIWIL2 (11732686_x_at) / RFU ORM1 (11744905_x_at) / Fold change /veh ORM1 (11744905_x_at) / RFU CCDC152 (11743942_at) / Fold change /veh CCDC152 (11743942_at) / RFU ECM1 (11717891_a_at) / Fold change /veh ECM1 (11717891_a_at) / RFU IL23R (11748794_a_at) / Fold change /veh IL23R (11748794_a_at) / RFU TNFAIP8L3 (11732012_x_at) / Fold change /veh TNFAIP8L3 (11732012_x_at) / RFU MBOAT4 (11741988_at) / Fold change /veh MBOAT4 (11741988_at) / RFU 11764193_at / Fold change /veh 11764193_at / RFU TMEM53 (11763286_at) / Fold change /veh TMEM53 (11763286_at) / RFU MAGEB2 (11727129_at) / Fold change /veh MAGEB2 (11727129_at) / RFU TMEM200A (11744735_a_at) / Fold change /veh TMEM200A (11744735_a_at) / RFU CCDC152 (11751479_a_at) / Fold change /veh CCDC152 (11751479_a_at) / RFU FAM211A (11726209_a_at) / Fold change /veh FAM211A (11726209_a_at) / RFU RGS16 (11746705_a_at) / Fold change /veh RGS16 (11746705_a_at) / RFU VCAN (11755009_s_at) / Fold change /veh VCAN (11755009_s_at) / RFU RHOB (11743442_s_at) / Fold change /veh RHOB (11743442_s_at) / RFU RGS16 (11720943_a_at) / Fold change /veh RGS16 (11720943_a_at) / RFU RGS16 (11720944_at) / Fold change /veh RGS16 (11720944_at) / RFU, VPS4B / Fold change vs veh, VPS4B / RFU, CREB1 / Fold change vs veh, CREB1 / RFU, DNAJC13 / Fold change vs veh, DNAJC13 / RFU, GNAQ / Fold change vs veh, GNAQ / RFU, CDK5R1 / Fold change vs veh, CDK5R1 / RFU, ZRANB3 / Fold change vs veh, ZRANB3 / RFU, CUL4A / Fold change vs veh, CUL4A / RFU, CCNY / Fold change vs veh, CCNY / RFU, UFL1 / Fold change vs veh, UFL1 / RFU, COG3 / Fold change vs veh, COG3 / RFU, DIAPH2 / Fold change vs veh, DIAPH2 / RFU, SKA2 / Fold change vs veh, SKA2 / RFU, AFF3 / Fold change vs veh, AFF3 / RFU, LMF1 / Fold change vs veh, LMF1 / RFU, IPO11 / Fold change vs veh, IPO11 / RFU, DFFB / Fold change vs veh, DFFB / RFU, FOXP1 / Fold change vs veh, FOXP1 / RFU, CARD8 / Fold change vs veh, CARD8 / RFU, STRN3 / Fold change vs veh, STRN3 / RFU, ADK / Fold change vs veh, ADK / RFU, RASSF2 / Fold change vs veh, RASSF2 / RFU, WIPF1 / Fold change vs veh, WIPF1 / RFU, LARP1B / Fold change vs veh, LARP1B / RFU, RASA1 / Fold change vs veh, RASA1 / RFU, RB1 / Fold change vs veh, RB1 / RFU, PPFIA1 / Fold change vs veh, PPFIA1 / RFU, MAT2A / Fold change vs veh, MAT2A / RFU, CCT5 / Fold change vs veh, CCT5 / RFU, WDR92 / Fold change vs veh, WDR92 / RFU, CUX1 / Fold change vs veh, CUX1 / RFU, TTC7A / Fold change vs veh, TTC7A / RFU, TMEM135 / Fold change vs veh, TMEM135 / RFU, DEPTOR / Fold change vs veh, DEPTOR / RFU, CPM / Fold change vs veh, CPM / RFU, DNAJB6 / Fold change vs veh, DNAJB6 / RFU, CACNA2D3 / Fold change vs veh, CACNA2D3 / RFU, DTX4 / Fold change vs veh, DTX4 / RFU, TFCP2 / Fold change vs veh, TFCP2 / RFU, GMCL1 /// GMCL1P1 / Fold change vs veh, GMCL1 /// GMCL1P1 / RFU, AEBP2 / Fold change vs veh, AEBP2 / RFU, SNHG1 /// SNORD22 /// SNORD25 /// SNORD26 /// SNORD27 /// SNORD28 /// SNORD29 /// SNORD31 / Fold change vs veh, SNHG1 /// SNORD22 /// SNORD25 /// SNORD26 /// SNORD27 /// SNORD28 /// SNORD29 /// SNORD31 / Fold change (Aza/veh), C12orf56 (ProbeSet 11735607_a_at) / Fold change (ACY-1035/veh), C12orf56 (ProbeSet 11735607_a_at) / Fold change (Aza/veh), FGFR1OP (ProbeSet 11751329_s_at) / Fold change (ACY-1035/veh), FGFR1OP (ProbeSet 11751329_s_at) / Fold change (Aza/veh), VPS36 (ProbeSet 11739960_a_at) / Fold change (ACY-1035/veh), VPS36 (ProbeSet 11739960_a_at) / RFU SYPL1 (11715823_x_at) / Fold change /veh SYPL1 (11715823_x_at) / RFU IGFBP7 (11715501_s_at) / Fold change /veh IGFBP7 (11715501_s_at) / RFU REEP3 (11722064_at) / Fold change /veh REEP3 (11722064_at) / RFU IGLL1 (11728026_x_at) / Fold change /veh IGLL1 (11728026_x_at): dose or concentration left out as unconfirmed",
  "details": "ProbeSet 11723930_at; LIST D",
  "data": [
    {"smiles": "Nc1ncn([C@@H]2O[C@H](CO)[C@@H](O)[C@H]2O)c(=O)n1", "note": "[azacitidine]", "values": [
      {"measurement": "RFU, CCT5", "result": 106.24, "unit": "RFU"}
    ]}
  ]
}
